According to US9210928B2, “Plant development control composition” (Syngenta Crop Protection, LLC, priority 2008, dated 2015):
“Also recorded” adds a separate entry of the source.

Tests used:
LeCCD1a = LeCCD1a (Solanum lycopersicum, UniProt Q6E4P5); experiment: In vitro LeCCD1a enzyme assay (recombinant cell-free extract, colourimetric, apo-8′-carotenal substrate); assay type: biochemical, tomato (Solanum lycopersicum); details: for inhibition at 100 µM: read-out: LeCCD1a (9,10/9′,10′) Inhibition @ 100 μM (%); for IC50: E. coli cell extract with recombinant CCD, read-out: LeCCD1a (9,10/9′,10′) IC50
Chain of LeCCD1a (Q6E4P5 1-545): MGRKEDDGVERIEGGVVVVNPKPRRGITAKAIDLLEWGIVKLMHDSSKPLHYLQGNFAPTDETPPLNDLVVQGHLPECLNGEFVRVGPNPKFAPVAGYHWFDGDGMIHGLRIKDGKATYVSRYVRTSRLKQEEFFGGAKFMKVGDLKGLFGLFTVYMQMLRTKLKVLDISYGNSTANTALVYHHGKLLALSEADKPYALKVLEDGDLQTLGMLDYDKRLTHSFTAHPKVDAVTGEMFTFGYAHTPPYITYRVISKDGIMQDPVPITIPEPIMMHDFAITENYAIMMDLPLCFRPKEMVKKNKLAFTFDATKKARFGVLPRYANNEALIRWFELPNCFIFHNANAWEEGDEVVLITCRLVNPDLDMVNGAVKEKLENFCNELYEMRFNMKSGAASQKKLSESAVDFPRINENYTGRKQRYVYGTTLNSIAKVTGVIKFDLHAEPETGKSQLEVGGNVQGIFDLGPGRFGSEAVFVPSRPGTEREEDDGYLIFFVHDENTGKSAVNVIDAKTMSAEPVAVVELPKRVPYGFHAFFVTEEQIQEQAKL
Protocol: In vitro LeCCD1a enzyme assay—We over-expressed LeCCD1a in E. coli, as a GST-fusion protein (supplemental methods). The in vitro assay of LeCCD1a was based on reported methods (37), and was carried out in a 200 μl total volume in a 96-well microtitre plate, with the signal detected at 485 nm. To prepare substrate solution for each assay, 5 μl of 4% (w/v in ethanol) apo-8′-carotenal (Sigma) was mixed with 25 μl of 4% (w/v in ethanol) β-octylglucoside (Sigma), the ethanol was then evaporated under nitrogen, and the residue dissolved in 150 μl PBS buffer containing 10 mM sodium ascorbate by incubation at 20° C. for 30 min. 50 μl of cell-free extract containing recombinant LeCCD1a was added, and the reactions monitored over 30 min at 20° C.
(§1) For the production of cell-free extracts of LeCCD1a and LeNCED1, cultures were grown to an OD of 0.6 at 37° C., then isopropyl β-D-1-thiogalactopyranoside (IPTG) was added to 0.2 mM and the cultures grown overnight at 20° C. The cells (200 ml cultures) were harvested by centrifugation (5000 rpm, 10 min) and the pellet re-suspended in 4 ml PBS, 0.1% Triton-X 100. Lysozyme was added to a final concentration of 25 μg ml^−1 and the solution incubated at room temperature for 15 min before sonication (3×30 s at 18Ω) on ice. The lysate was then centrifuged (13000 rpm, 15 min, 4° C.) and the supernatant used for the assay.
(§2) Specificity of inhibition in vitro for tomato genes LeNCED1 and LeCCD1a—In order to screen the inhibitors against enzymes which cleave carotenoids at the 9,10 position, we used the recombinant tomato LeCCD1a protein (44), because this type of enzyme can be studied using an in vitro colourimetric assay with β-apo-8′-carotenal as substrate (37). To establish the specificity of the inhibitors, they were also tested against the tomato LeNCED1 recombinant protein which cleaves 9-cis carotenoids at the 11,12 position (45). For this enzyme, the cleavage reaction was monitored by C18 reverse phase HPLC, using 9′-cis-neoxanthin as substrate.

LeNCED1 = molecular target: T1, LeNCED1 (Solanum lycopersicum, UniProt O24023); experiment: In vitro NCED enzyme assay (recombinant LeNCED1 cell-free extract, HPLC, 9′-cis-neoxanthin substrate); assay type: biochemical, tomato
T1 construct: made in house; host or cells: E. coli Rosetta (DE3); crude cell-free extract
T1 sequence (O24023 17-605): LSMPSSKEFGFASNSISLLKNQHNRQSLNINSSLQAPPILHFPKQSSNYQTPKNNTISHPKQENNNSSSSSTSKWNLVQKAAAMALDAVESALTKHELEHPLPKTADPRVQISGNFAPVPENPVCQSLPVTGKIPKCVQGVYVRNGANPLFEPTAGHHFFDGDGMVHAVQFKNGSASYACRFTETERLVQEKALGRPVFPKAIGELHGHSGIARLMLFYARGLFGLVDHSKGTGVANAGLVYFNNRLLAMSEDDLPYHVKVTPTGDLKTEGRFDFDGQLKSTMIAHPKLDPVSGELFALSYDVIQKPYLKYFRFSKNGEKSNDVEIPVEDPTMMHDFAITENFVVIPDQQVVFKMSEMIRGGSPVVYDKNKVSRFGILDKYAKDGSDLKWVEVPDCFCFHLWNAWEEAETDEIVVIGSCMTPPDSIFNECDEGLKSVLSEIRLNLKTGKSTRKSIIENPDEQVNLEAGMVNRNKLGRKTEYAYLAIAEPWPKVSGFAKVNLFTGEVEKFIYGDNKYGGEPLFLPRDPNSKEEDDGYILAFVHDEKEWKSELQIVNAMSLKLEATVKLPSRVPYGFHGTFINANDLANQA
Protocol: In vitro NCED enzyme assay—We over-expressed LeNCED1 in E. coli, as an N-terminal His6-fusion protein (supplemental methods). Cell-free extract containing recombinant LeNCED1 was prepared in 100 mM bis-tris buffer (pH 6.7). 15 μl extract was pre-activated by addition of iron(II) sulphate (20 mM, 1 μl) and ascorbic acid (20 mM, 1 μl) on ice for 2 min, prior to use. This aliquot of enzyme was then added to an assay (150 μl total volume) containing 100 mM bis-tris buffer (pH 6.7), 0.05% v/v Triton X-100, 1.0 mg/ml catalase, and 3 μg 9′-cis-neoxanthin. The 9′-cis-neoxanthin substrate was prepared as described in supplemental methods. The enzyme assay was incubated for 15 min in the dark at 20° C. Water (700 μl) was then added, and the products extracted with ethyl acetate (3×1 ml). The organic solvent was removed at reduced pressure, the residue was dissolved in methanol (200 μl), and then 100 μl was injected onto a Phenomenex C18 reverse phase HPLC column, and a gradient of 5-10% methanol in acetonitrile/0.05% triethylamine was applied at 0.5 ml/min over 20 min, detecting at 440 nm. NCED inhibition assays contained 1-100 μM inhibitor; inhibition was calculated from the product formation after 15 min, compared to a control assay with no inhibitor present.
as §1, §2

SP12 tomato seeds = experiment: Germination assay, SP12 tomato seed over-expressing LeNCED1; assay type: in vivo, Solanum lycopersicum; details: for stimulation of germination of SP12 seeds: compounds D1 to D7 tested, 1% DMSO
Description: (§3) Seeds used were “wild-type” tomato (Solanum lycopersicum cv. Ailsa craig near-isogenic line containing the Tm2^a tobacco mosaic virus resistance gene). In addition, we used transgenic tomato seed (Solanum lycopersicum cv. Ailsa craig) transformed with a construct designed to over-express the gene LeNCED1, encoding 9-cis-epoxycarotenoid dioxygenase. These transgenic seeds are known as D9 [Thompson, A. J., et al., Ectopic expression of a tomato 9-cis-epoxycarotenoid dioxygenase gene causes over-production of abscisic acid. Plant Journal, 2000. 23(3): p. […]], but were later renamed as SP12 [Thompson, A. J., et al., Regulation and manipulation of ABA biosynthesis in roots. Plant Cell and Environment, 2007. 30: p. […] Plant Journal, 2000. 23(3): p. 363-74.5].
(§4) Each assay consisted of a 10 cm vented Petri dish containing an 8.5 cm diameter circle of Whatman Grade 1 filter paper (Whatman International Ltd, Maidstone, England) soaked in 1 ml of test solution. Seeds were surface sterilized with 30% household bleach for 30 mins, rinsed in distilled water, and then 20 seeds were placed on the filter paper in each Petri dish. The Petri dishes were incubated at high relative humidity (>95%) at 25° C. in the dark. Seed germination, defined as visible emergence of the radicle, was scored daily. Replicate plates were used for each chemical treatment.
Hydroxamic acids were dissolved in dimethylsulphoxide (DMSO), and aqueous test solutions were prepared such that the final concentration of DMSO was 1% v/v. Control solution consisted of 1% v/v DMSO in water. Norflurazon was prepared as a stock solution at 20 mg ml^−1 in ethanol, and then diluted with water to a final concentration of 5 mg l^−1, with ethanol present at 0.025% v/v.
Transgenic SP12 tomato seeds we created by the inventors; these seeds have high levels of ABA and increased dormancy [Thompson, A. J., et al., Ectopic expression of a tomato 9-cis-epoxycarotenoid dioxygenase gene causes over-production of abscisic acid. Plant Journal, 2000. 23(3): p. 363-74 and Thompson, A. J., et al., Regulation and manipulation of ABA biosynthesis in roots. Plant Cell and Environment, 2007. 30: p. 67-78].

recombinant NCED = details: read-out: Ki, reversible competitive inhibitor of recombinant NCED; cited from earlier work
AtNCED3 = AtNCED3 (Arabidopsis thaliana, UniProt Q9LRR7); details: 100 μM; cited from earlier work
Chain of AtNCED3 (Q9LRR7 41-599): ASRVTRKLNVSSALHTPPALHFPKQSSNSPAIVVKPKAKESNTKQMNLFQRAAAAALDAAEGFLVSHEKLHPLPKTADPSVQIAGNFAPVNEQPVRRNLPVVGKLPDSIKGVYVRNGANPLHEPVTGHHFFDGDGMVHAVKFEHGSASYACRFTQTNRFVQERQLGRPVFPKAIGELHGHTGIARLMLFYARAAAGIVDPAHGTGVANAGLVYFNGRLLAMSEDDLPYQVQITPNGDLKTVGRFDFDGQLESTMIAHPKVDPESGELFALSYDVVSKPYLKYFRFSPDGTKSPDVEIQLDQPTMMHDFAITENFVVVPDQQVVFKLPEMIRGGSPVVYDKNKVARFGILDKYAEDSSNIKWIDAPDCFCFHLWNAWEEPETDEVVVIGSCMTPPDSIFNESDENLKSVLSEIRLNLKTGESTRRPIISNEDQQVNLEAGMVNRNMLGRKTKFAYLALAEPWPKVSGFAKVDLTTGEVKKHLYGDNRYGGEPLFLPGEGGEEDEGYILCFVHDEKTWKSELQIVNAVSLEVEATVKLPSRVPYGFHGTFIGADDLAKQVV

AtCCD1 = AtCCD1 (Arabidopsis thaliana, UniProt O65572); details: 100 μM; cited from earlier work
Chain of AtCCD1 (O65572 whole entry): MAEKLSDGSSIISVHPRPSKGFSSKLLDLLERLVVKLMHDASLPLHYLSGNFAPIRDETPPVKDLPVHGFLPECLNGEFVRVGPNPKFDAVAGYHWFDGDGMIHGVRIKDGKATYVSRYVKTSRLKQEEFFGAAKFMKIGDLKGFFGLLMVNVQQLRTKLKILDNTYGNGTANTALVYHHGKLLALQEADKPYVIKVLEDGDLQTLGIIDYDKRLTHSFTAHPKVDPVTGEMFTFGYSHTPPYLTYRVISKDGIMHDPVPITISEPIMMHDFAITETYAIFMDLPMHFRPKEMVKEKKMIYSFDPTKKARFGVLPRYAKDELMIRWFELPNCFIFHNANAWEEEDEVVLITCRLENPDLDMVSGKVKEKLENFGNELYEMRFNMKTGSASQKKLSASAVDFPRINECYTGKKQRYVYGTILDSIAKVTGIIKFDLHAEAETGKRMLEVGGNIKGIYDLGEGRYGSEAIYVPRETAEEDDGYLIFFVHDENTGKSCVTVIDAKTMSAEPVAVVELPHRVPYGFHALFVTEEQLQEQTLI

[1] = system: excised Arabidopsis nodes; experiment: Axillary bud outgrowth assay in Arabidopsis stem sections; assay type: in vivo; details: 100 μM inhibitor, 1 μM NAA; Col-0
Protocol: Axillary bud outgrowth assay in Arabidopsis stein sections—The assays were performed essentially as described (40) with the following modifications. Small Petri dishes (50 mm diameter, 20 mm depth) were filled with 10 ml of ATS (39) supplemented with 1% agar and 1% sucrose. Inhibitors and α-naphthalene acetic acid (NAA) were added to the agar before pouring to give 100 μM and 1 μM, respectively. Thus, when the central strip was cut out of the agar, both the apical and basal media contained both NAA and inhibitor. Any nodes in which the apical end had curled out of the media or which bud length was less than 2 mm at the end of the experiment were discounted. Measurement of the shoot length was performed every 24 hours. For each assay a logistic curve was fitted using Genstat (10th edition, VSN international) with the fitcurve directive and the lag phase was calculated by extrapolating the linear part of the curve and the initial plateau (see supplementary methods). The x value of where these two lines intersected represented the lag phase.
A logistic curve, y=A+C/(1+e^−B(t−m)), was fitted to the data for each shoot using GenStat (10th edition). The lag phase was then calculated using the equation m−(2/B) which effectively gave the t value (time) of the intercept of the two extrapolated lines from the linear part of the curve and the initial plateau.
Stimulation of shoot branching in Arabidopsis stem sections by application of inhibitor—Auxin inhibits the outgrowth of axillary buds in wild-type Arabidopsis plants. In the AtCCD7 and AtCCD8 null mutants (max3 and max4, respectively) the response to auxin is reduced, presumably due to a block in formation of an apocarotenoid hormone (recently shown (17,18) to be strigolactone or a related compound) that suppresses branching (19), and axillary buds extend earlier, leading to formation of side branches. An in vitro assay was previously developed in which the growth of axillary buds from isolated sections of Arabidopsis stem was used to assess max mutants (40). […]

whole Arabidopsis plants = experiment: Shoot branching in whole Arabidopsis plants grown in agar; assay type: in vivo; details: for unintended effects on whole Arabidopsis plants: applied to whole plants; for branching phenotype of whole plants (in words): plants grown under sterile conditions in agar
Protocol: Branching phenotypes of Arabidopsis plants grown in agar media for 45 days supplemented with inhibitor D6. Images are shown: (a) Col-0 (WT) without inhibitor; (b) max3-9 mutant without inhibitor; (c) Col-0 with 100 μM D6. The numbers (d) of rosette branches were quantified. Error bars represent standard error of the mean, n=6 to 12.
Stimulation of shoot branching in whole Arabidopsis plants—Inhibitors were also applied to Arabidopsis whole plants grown under sterile conditions in agar. […] Inhibitor treated plants were intermediate (mean of approximately 2 branches) and so partially mimicked max3-9 (FIG. 6d).

[2] = system: abscisic acid production in planta; details: 50-100 μM concentration; cited from earlier work
[3] = system: wild-type tomato seeds (cv. Ailsa Craig); experiment: Germination assay, wild-type tomato seed; assay type: in vivo, Solanum lycopersicum; details: dose-dependent; FIG. 9
Description: as §3
as §4, with “treatment. […]” for “treatment.”

Row | Compound | inhibition at 100 µM (LeCCD1a) [%] | inhibition of LeNCED1 in vitro (in words) (LeNCED1) | stimulation of germination of SP12 seeds (SP12 tomato seeds) | Ki (recombinant NCED) [µM] | IC50 (LeCCD1a) [µM] | unintended effects on whole Arabidopsis plants (whole Arabidopsis plants) | branching phenotype of whole plants (in words) (whole Arabidopsis plants) | also measured
1 | O=C(Cc1ccc2c(c1)OCO2)N(O)Cc1ccc(F)cc1 [Compound D7, N-(4-fluorobenzyl)-3,4-methylenoxyphenylacetyl hydroxamic acid] | > 95 | greatest inhibition of NCED in vitro | most active compounds in stimulating germination |  |  |  |  | 
2 | abamineSG |  |  |  | 18.5 |  |  |  | inhibition of AtNCED3 (AtNCED3): 78%; inhibition of AtCCD1 (AtCCD1): ≤ 20%
3 | O=C(Cc1ccc(O)cc1)N(O)Cc1ccccc1 [Compound D1, N-benzyl-4-hydroxyphenylacetyl hydroxamic acid] | > 95 |  |  |  | 0.8 to 0.9 | grew normally | without an increase in branching | inhibition of LeCCD1 in vitro (in words) (LeCCD1a): good inhibitors of the 9,10 enzymes in vitro; advancement of the timing of bud outgrowth in wild-type [1]: one
4 | COC(=O)CN(C/C=C/c1ccc(OC)c(OC)c1)Cc1ccc(F)cc1 [Abamine, reference compound] |  |  |  | 39 | 210 |  |  | LeNCED1 (11,12) Inhibition @ 100 μM (%) (LeNCED1; 100 μM inhibitor, E. coli cell extract with recombinant CCD): 20%; abscisic acid production in planta [2]: inhibited abscisic acid production in planta
5 | COc1ccc(CC(=O)N(O)Cc2ccc(F)cc2)cc1 [Compound D4, N-(4-fluorobenzyl)-4-methoxyphenylacetyl hydroxamic acid] | > 95 | greatest inhibition of NCED in vitro | most active compounds in stimulating germination; also recorded: promoted germination of SP12 seeds |  |  | without negative unintended effects on whole plants | bushy appearance | plant development following application to seeds (SP12 tomato seeds; 2 mM): Some delay in development; plant development following application to wild-type or SP12 seeds (SP12 tomato seeds; concentrations <1 mM): Normal plant development; germination of wild-type tomato seeds [3]: germination of these seeds was also promoted
